Data from patent US8288548B2, “Oxazolo[5-4-b]pyridin-5-yl compounds” (Eli Lilly and Company, priority 2010, dated 2012).
Marks after values point to notes of the source that are not given here.

Key:
[1] = test system: OPM-2 cells; experiment: OPM-2 multiple myeloma xenograft model; type: in vivo, CB-17 SCID mice; conditions: PO, BID
Procedure: Female CB-17 SCID mice are obtained from Taconic at 20-22 g weight. After acclimating for one week, mice are irradiated with a dose of 2.5 Gray. Within 24 hours following irradiation, mice are injected sub-cutaneously in the rear flank with 1.0×10^7 OPM-2 cells in a 0.2 mL volume in a 1:1 mixture of cell culture media and BD […]™ matrix. Tumor size is monitored by caliper measurement twice per week. When the tumor size reaches 100-150 mm^3, animals are randomized into dose groups. Compound treatment is initiated after randomization. Example 2 is dosed orally in a 0.2 mL volume of 1% HEC, 0.25% TWEEN® 80, 0.05% antifoam (HEC/TWEEN®). The compound is dosed at doses of 15 and 30 mg/kg. Dosing is performed two times per day (BID) for 28 days of treatment. Tumor volume is monitored twice per week during the dosing period, and efficacy (tumor growth inhibition) is monitored relative to a vehicle control group (n=10 animals).

[2] = test system: A2780 human ovarian carcinoma cells; experiment: A2780 xenograft model, tumor growth inhibition; type: in vivo, CD1 nu/nu mice; conditions: 4 day on, 3 d off
Procedure: (§1) Female CD1 nu/nu mice are obtained from Charles River Laboratories at approximately 22-25 g. After 1 week acclimation, 2×10^6 A2780 human ovarian carcinoma cells are injected subcutaneously in the rear flank of each mouse in a 0.2 mL volume in a 1:1 mixture of cell culture media and BD […]™ matrix. Tumor size is monitored by caliper measurement twice per week. When the average tumor size reaches 150 mm^3, animals are randomized into groups of 10. p38 MAP kinase inhibitor treatment is initiated after randomization. Example 2 is dosed orally in a 0.2 mL volume of 1% HEC, 0.25% TWEEN® 80, 0.05% antifoam (HEC/TWEEN®). The compound is dosed at doses of 1, 3, and 10 mg/kg. Dosing is performed three times per day (TID) on a schedule of 4 days on, 3 days off. Three cycles of dosing is performed. Tumor volume is monitored twice per week during the dosing period, and efficacy (tumor growth inhibition) is monitored relative to a vehicle control group (n=10 animals). At 1, 2 and 8 hours after the last p38 MAP kinase inhibitor dose, plasma is obtained from animals to determine the circulating levels of compound in the animals.

[3] = Plasma concentration after last dose in the A2780 xenograft model; type: in vivo, CD1 nu/nu mice
Procedure: as §1

[4] = test system: 786-O human renal cell carcinoma cells; experiment: 786-O xenograft model in combination with sunitinib; type: in vivo, athymic nude mice; conditions: BID x 28
Procedure: Female athymic nude mice are obtained from Harlan Labs at a weight of 24-26 g. […] Tumor size is monitored by caliper measurement twice per week. […] The compound is dosed orally in a 0.2 mL volume of 1% HEC, 0.25% TWEEN® 80, 0.05% antifoam (HEC/TWEEN®). […] Tumor volume is monitored twice per week and efficacy (tumor growth inhibition) is compared relative to vehicle-treated control animals. […] Statistical assessment of synergy was performed using two-way repeated measures analysis of variance on log tumor volume vs. time.

Compound: 2-[5-(2,4-Difluorophenyl)-4-[2-[[(1S)-3-methoxy-1-methyl-propyl]amino]oxazolo[5,4-b]pyridin-5-yl]-1H-imidazol-2-yl]-2-methyl-propan-1-ol, methanesulfonate [Example 2]
- Mean tumor size (mm3) ([1]; 15 mpk, Day 4): 101.69 mm3
- Mean tumor size (mm3) ([1]; 15 mpk, Day 8): 87.96 mm3
- Mean tumor size (mm3) ([1]; 15 mpk, Day 11): 104.9 mm3
- Mean tumor size (mm3) ([1]; 15 mpk, Day 15): 104.21 mm3
- Mean tumor size (mm3) ([1]; 15 mpk, Day 18): 120.17 mm3
- Mean tumor size (mm3) ([1]; 15 mpk, Day 21): 182.47 mm3
- Mean tumor size (mm3) ([1]; 15 mpk, Day 25): 169.53 mm3
- Mean tumor size (mm3) ([1]; 15 mpk, Day 29): 214.28 mm3
- Mean tumor size (mm3) ([1]; 15 mpk, Day 33): 326.29 mm3
- Mean tumor size (mm3) ([1]; 15 mpk, Day 36): 384.59 mm3
- Mean tumor size (mm3) ([1]; 15 mpk, Day 43): 628.46 mm3
- Mean tumor size (mm3) ([1]; 15 mpk, Day 46): 700.62 mm3
- Mean tumor size (mm3) ([1]; 15 mpk, Day 49): 937.29 mm3
- Mean tumor size (mm3) ([1]; 15 mpk, Day 53): 1138.19 mm3
- Mean tumor size (mm3) ([1]; 30 mpk, Day 4): 97.8 mm3
- Mean tumor size (mm3) ([1]; 30 mpk, Day 8): 90.78 mm3
- Mean tumor size (mm3) ([1]; 30 mpk, Day 11): 118.46 mm3
- Mean tumor size (mm3) ([1]; 30 mpk, Day 15): 95.34 mm3
- Mean tumor size (mm3) ([1]; 30 mpk, Day 18): 103.71 mm3
- Mean tumor size (mm3) ([1]; 30 mpk, Day 21): 115.16 mm3
- Mean tumor size (mm3) ([1]; 30 mpk, Day 25): 155.27 mm3
- Mean tumor size (mm3) ([1]; 30 mpk, Day 29): 154.83 mm3
- Mean tumor size (mm3) ([1]; 30 mpk, Day 33): 224.14 mm3
- Mean tumor size (mm3) ([1]; 30 mpk, Day 36): 243.32 mm3
- Mean tumor size (mm3) ([1]; 30 mpk, Day 43): 407.07 mm3
- Mean tumor size (mm3) ([1]; 30 mpk, Day 46): 527.14 mm3
- Mean tumor size (mm3) ([1]; 30 mpk, Day 49): 642.22 mm3
- Mean tumor size (mm3) ([1]; 30 mpk, Day 53): 812.48 mm3
- Tumor Growth Inhibition (%) ([2]; 1 mg/kg PO TID, Day 20): 70.6%
- Tumor Growth Inhibition (%) ([2]; 1 mg/kg PO TID, Day 23): 76.6%
- Tumor Growth Inhibition (%) ([2]; 1 mg/kg PO TID, Day 26): 76%
- Tumor Growth Inhibition (%) ([2]; 1 mg/kg PO TID, Day 29 (final)): 78.3%
- Tumor Growth Inhibition (%) ([2]; 3 mg/kg PO TID, Day 20): 32.5%
- Tumor Growth Inhibition (%) ([2]; 3 mg/kg PO TID, Day 23): 47.7%
- Tumor Growth Inhibition (%) ([2]; 3 mg/kg PO TID, Day 26): 42.7%
- Tumor Growth Inhibition (%) ([2]; 3 mg/kg PO TID, Day 29 (final)): 37.7%
- Tumor Growth Inhibition (%) ([2]; 10 mg/kg PO TID, Day 20): 60%
- Tumor Growth Inhibition (%) ([2]; 10 mg/kg PO TID, Day 23): 71.2%
- Tumor Growth Inhibition (%) ([2]; 10 mg/kg PO TID, Day 26): 72.8%
- Tumor Growth Inhibition (%) ([2]; 10 mg/kg PO TID, Day 29 (final)): 74.8%
- Mean Plasma Concentration (μM) at time (hour) post-last dose ([3]; 1 mg/kg PO TID, 1 hour post-last dose): 0.0263 µM
- Mean Plasma Concentration (μM) at time (hour) post-last dose ([3]; 1 mg/kg PO TID, 2 hour post-last dose): 0.0146 µM
- Mean Plasma Concentration (μM) at time (hour) post-last dose ([3]; 3 mg/kg PO TID, 1 hour post-last dose): 0.0526 µM
- Mean Plasma Concentration (μM) at time (hour) post-last dose ([3]; 3 mg/kg PO TID, 2 hour post-last dose): 0.0604 µM
- Mean Plasma Concentration (μM) at time (hour) post-last dose ([3]; 3 mg/kg PO TID, 3 hour post-last dose): 0.0042 µM
- Mean Plasma Concentration (μM) at time (hour) post-last dose ([3]; 10 mg/kg PO TID, 1 hour post-last dose): 0.4952 µM
- Mean Plasma Concentration (μM) at time (hour) post-last dose ([3]; 10 mg/kg PO TID, 2 hour post-last dose): 0.3978 µM
- Mean Plasma Concentration (μM) at time (hour) post-last dose ([3]; 10 mg/kg PO TID, 3 hour post-last dose): 0.0243 µM

Compound: COCC[C@H](C)Nc1nc2ccc(-c3nc(C(C)(C)CO)[nH]c3-c3ccc(F)cc3F)nc2o1.Cl [Example 3, 2-[5-(2,4-Difluorophenyl)-4-[2-[[(1S)-3-methoxy-1-methyl-propyl]amino]oxazolo[5,4-b]pyridin-5-yl]-1H-imidazol-2-yl]-2-methyl-propan-1-ol, hydrochloride]
- % Tumor Growth Inhibition ([4]; Example 3 15 mg/kg PO, Day 17): −35.5%
- % Tumor Growth Inhibition ([4]; Example 3 15 mg/kg PO, Day 21): −23%
- % Tumor Growth Inhibition ([4]; Example 3 15 mg/kg PO, Day 24): −52.4%
- % Tumor Growth Inhibition ([4]; Example 3 15 mg/kg PO, Day 28): −74.1* %
- % Tumor Growth Inhibition ([4]; Example 3 15 mg/kg PO, Day 31): −58.8* %

Compound: CCN(CC)CCNC(=O)c1c(C)[nH]c(/C=C2\C(=O)Nc3ccc(F)cc32)c1C [Sunitinib]
- % Tumor Growth Inhibition ([4]; Sunitinib 10 mg/kg PO, Day 17): −1.6%
- % Tumor Growth Inhibition ([4]; Sunitinib 10 mg/kg PO, Day 21): 2.9%
- % Tumor Growth Inhibition ([4]; Sunitinib 10 mg/kg PO, Day 24): −16.3%
- % Tumor Growth Inhibition ([4]; Sunitinib 10 mg/kg PO, Day 28): −21.2%
- % Tumor Growth Inhibition ([4]; Sunitinib 20 mg/kg PO, Day 17): −55.9%
- % Tumor Growth Inhibition ([4]; Sunitinib 20 mg/kg PO, Day 21): 31.5%
- % Tumor Growth Inhibition ([4]; Sunitinib 20 mg/kg PO, Day 24): 18%
- % Tumor Growth Inhibition ([4]; Sunitinib 20 mg/kg PO, Day 28): 34.5%
- % Tumor Growth Inhibition ([4]; Sunitinib 20 mg/kg PO, Day 31): 35.4* %
